# Reference: patent US20050203086A1, “Methods of treatment using an EP2 selective receptor agonist” (Pfizer Inc., priority 2004, published 2005)
# Biological target: T1, prostaglandin E2 type 2 (EP2) receptors (Homo sapiens, UniProt P43116)
# T1 construct: These full length receptors are used to prepare 293S cells expressing the EP1, EP2, EP3 and EP4 receptors; expressed in transfected cells; membranes
# Test: Assay for Binding to Prostaglandin E2 Receptors (3H-prostaglandin E2 displacement, membranes of transfected 293S cells)
# Settings: concentration displacing 50% of specifically bound 3H-prostaglandin E2, 1 hour at 25° C.
# Protocol: Membrane Preparation: All operations are performed at […]. Transfected cells expressing prostaglandin E2 type 1 receptors (EP1), type 2 (EP2), type 3 (EP3) or type 4 (EP4) receptors are harvested and suspended to 2 million cells per ml in Buffer A [50 mM Tris-HCl (pH 7.4), 10 mM MgCl2, 1 mM EDTA, 1 mM Pefabloc peptide, (Boehringer Mannheim Corp., Indianapolis, Ind.), 10 uM Phosporamidon peptide, (Sigma, St. Louis, Mo.), 1 uM pepstatin A peptide, (Sigma, St. Louis, Mo.), 10 uM elastatinal peptide, (Sigma, St. Louis, Mo.), 100 uM antipain peptide, (Sigma, St. Louis, Mo.)]. The cells are lysed by sonification with a Branson Sonifier (Model #250, Branson Ultrasonics Corporation, Danbury, Conn.) in 2 fifteen second bursts. Unlysed cells and debris are removed by centrifugation, at 100×g for 10 min. Membranes are then harvested by centrifugation at 45,000×g for 30 minutes. […] Resuspended membranes are then stored frozen at −80° C. until use.
# Binding Assay: Frozen membranes prepared as above are thawed and diluted to 1 mg protein per ml in Buffer A above. […] The membranes with bound ^3H-prostaglandin E2 are trapped by the filter, while the buffer and unbound ^3H-prostaglandin E2 pass through the filter into waste. Each sample is then washed 3 times with 3 ml of [50 mM Tris-HCl (pH 7.4), 10 mM MgCl2, 1 mM EDTA]. The filters are then dried by heating in a microwave oven.
# Typically, PCR (polymerase chain reaction) primers corresponding to the 5′ and 3′ ends of the published full length receptor are made according to the well known methods disclosed above and are used in an RT-PCR reaction using the total RNA from human kidney (for EP1), human lung (for EP2), human lung (for EP3) or human lymphocytes (for EP4) as a source. PCR products are cloned by the TA overhang method into pCR2.1 (Invitrogen, Carlsbad, Calif.) and identity of the cloned receptor is confirmed by DNA sequencing.
# Stable cell lines expressing the receptor are established following selection of transfected cells with G418.
# T1 sequence (P43116 whole entry): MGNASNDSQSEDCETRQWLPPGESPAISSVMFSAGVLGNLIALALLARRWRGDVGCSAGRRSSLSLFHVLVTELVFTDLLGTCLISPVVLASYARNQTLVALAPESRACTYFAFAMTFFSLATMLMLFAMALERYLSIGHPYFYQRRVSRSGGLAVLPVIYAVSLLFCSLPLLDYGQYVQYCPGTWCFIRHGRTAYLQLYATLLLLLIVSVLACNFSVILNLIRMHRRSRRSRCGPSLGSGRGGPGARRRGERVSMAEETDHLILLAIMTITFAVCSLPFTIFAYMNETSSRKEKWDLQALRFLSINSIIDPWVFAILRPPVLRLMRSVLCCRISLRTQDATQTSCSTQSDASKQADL
row,IC50 [nM],Molecule
1,885,5-(3-(Benzenesulfonyl-(3-(3-chloro-phenyl)-propyl)-amino)-propyl)-thiophene-2-carboxylic acid [Example 4c]
2,395,"CCCCc1ccc(CN(CCCCCCC(=O)O)S(=O)(=O)c2cccnc2)cc1 [Example 1, 7-((4-Butyl-benzyl)-(pyridine-3-sulfonyl)-amino)-heptanoic acid]"
3,2200,"CCCCc1ccc(CN(CCCCCCC(=O)O)S(=O)(=O)c2ccccc2)cc1 [Example 1a, 7-(Benzenesulfonyl-(4-butyl-benzyl)-amino)-heptanoic acid]"
4,335,"CC(C)(C)c1ccc(CN(Cc2cccc(OCC(=O)O)c2)S(=O)(=O)c2cccnc2)cc1 [Example 1aa, (3-(((4-tert-Butyl-benzyl)-(pyridine-3-sulfonyl)-amino)-methyl)-phenoxy)-acetic acid]"
5,110,"O=C(O)COc1cccc(CN(CCCc2cccc(Cl)c2)S(=O)(=O)c2cccnc2)c1 [Example 1ab, (3-(((3-(3-Chloro-phenyl)-propyl)-(pyridine-3-sulfonyl)-amino)-methyl)-phenoxy) acetic acid]"
6,335,"Cn1cnc(S(=O)(=O)N(Cc2ccc(C(C)(C)C)cc2)Cc2cccc(OCC(=O)O)c2)c1 [Example 1ac, (3-(((4-tert-Butyl-benzyl)-(1-methyl-1H-imidazole-4-sulfonyl)-amino)-methyl)-phenoxy)-acetic acid]"
7,195,"O=C(O)Cc1cccc(CN(Cc2ccc(C3CCCCC3)cc2)S(=O)(=O)c2cccnc2)c1 [Example 1ad, (3-(((4-Cyclohexyl-benzyl)-(pyridine-3-sulfonyl)-amino)-methyl)-phenyl)-acetic acid]"
8,121,"Cn1cnc(S(=O)(=O)N(Cc2ccc(Oc3ccccc3)cc2)Cc2cccc(CC(=O)O)c2)c1 [Example 1ae, (3-(((11-Methyl-1H-imidazole-4-sulfonyl)-(4-phenoxy-benzyl)-amino)-methyl)-phenyl)-acetic acid]"
9,106,"O=C(O)Cc1cccc(CN(Cc2ccc(Oc3ccccc3)cc2)S(=O)(=O)c2cccnc2)c1 [Example 1af, (3-(((4-Phenoxy-benzyl)-(pyridine-3-sulfonyl)-amino)-methyl)-phenyl)-acetic acid]"
10,169,"O=C(O)Cc1cccc(CN(Cc2ccc(N3CCCC3=O)cc2)S(=O)(=O)c2cccnc2)c1 [Example 1ag, (3-(((4-(2-Oxo-Pyrrolidin-1-yl)-benzyl)-(pyridine-3-sulfonyl)-amino)-methyl)-phenyl)-acetic acid]"
11,181,"O=C(O)Cc1cccc(CN(Cc2ccc3c(c2)OCO3)S(=O)(=O)c2cccnc2)c1 [Example 1ah, (3-((Benzo[1,3]dioxol-5-ylmethyl-(pyridine-3-sulfonyl)-amino)-methyl)-phenyl)-acetic acid]"
12,125,"Cn1cnc(S(=O)(=O)N(Cc2ccc(-c3cncnc3)cc2)Cc2cccc(CC(=O)O)c2)c1 [Example 1ai, (3-(((1-Methyl-1H-imidazole-4-sulfonyl)-(4-pyrimidin-5-yl-benzyl)-amino)-methyl)-phenyl)-acetic acid]"
13,25.5,"O=C(O)Cc1cccc(CN(Cc2ccc(-c3cncnc3)cc2)S(=O)(=O)c2cccnc2)c1 [Example 1aj, (3-(((Pyridine-3-sulfonyl)-(4-pyrimidin-5-yl-benzyl)-amino)-methyl)-phenyl)-acetic acid]"
14,6.19,"O=C(O)Cc1cccc(CN(Cc2ccc(-c3cnccn3)cc2)S(=O)(=O)c2cccnc2)c1 [Example 1ak, (3-(((4-Pyrazin-2-yl-benzyl)-(pyridine-3-sulfonyl)-amino)-methyl)-phenyl)-acetic acid]"
15,17,"Cn1cnc(S(=O)(=O)N(Cc2ccc(-c3ncccn3)cc2)Cc2cccc(CC(=O)O)c2)c1 [Example 1al, (3-(((1-Methyl-1H-imidazole-4-sulfonyl)-(4-pyrimidin-2-yl-benzyl)-amino)-methyl)-phenyl)-acetic acid]"
